# Assay results from patent publication US20060115492A1, “Pharmaceutical composition and health food comprising extract of Phellinus sp. PL3 or phellinsin a isolated from the same as an effective component for prevention and treatment of cardiovascular disease” (Korea Research Institute of Bioscience and Biotechnology, priority 2004, published 2006).
# Key:
# [1] = DPPH radical scavenging; assay type: biochemical; details: for IC50: after 35 min, read-out: IC50 (DPPH free radical scavenging); for Radical scavenging activity (%): 100 μM solutions in methanol
# Description: Phellinsin A and 1-diphenyl-2-picryl hydrazyl (DPPH) were dissolved in methanol to be adjusted to 100 μM of concentration, respectively. Then, 1 mL of phellinsin A solution was mixed with 2 mL of DPPH solution and stirred well. […]
# [2] = tested on: LDL; test: Anti-oxidant activity by monitoring conjugated dienes continuously (LDL oxidation, absorbance at 234 nm); assay type: biochemical, human; details: control lag time 44 min
# Description: 240 μL of LDL (120 μg/mL of protein concentration) separated in Experimental Example 1 was mixed with 2,510 μL of 10 mM phosphate buffer solution and added with 10 μL of phellinsin A solution prepared in 2 kinds of concentration (2 μM and 5 μM), respectively. At this moment, the phellinsin A was utilized after dissolved in DMSO and for a negative control, only solvent was added. For a positive control, probucol was added before use.
# Then, 240 μL of 0.125 mM CuSO4 was added to the resulting solution, reacted at 37° C. for 4 hours and coincidently, measured by monitoring the absorbance at 234 nm with a UV-visible spectrophotometer at 10 min intervals.
# [3] = tested on: macrophage-mediated LDL oxidation (THP-1 cells); test: Macrophage-mediated LDL oxidation (THP-1 cells, TBARS); assay type: cell-based; details: for MDA nmol/mg LDL protein: LDL + cell + Cu2+, control 210.6 ± 10.7
# Description: Then, the resulting cells were cultivated for 3 days and activated by using macrophages sufficiently.
# Phellinsin A was dissolved in DMSO and diluted in various concentrations before used in the experiment. In order to catalyze the macrophage-mediated LDL oxidation, 2μL of 0.5 mM CuSO4 was added to the phellinsin A solution. Incubation was then carried out for 24 hours at 37° C. under a humidified atmosphere containing 5% CO2.
# [4] = target: T1, chitin synthase 2 of Saccharomyces cerevisiae (Saccharomyces cerevisiae, UniProt P14180); details: J. Antibiotics, 2000, 9: 903-911; cited from earlier work
# T1 sequence (P14180 1-963): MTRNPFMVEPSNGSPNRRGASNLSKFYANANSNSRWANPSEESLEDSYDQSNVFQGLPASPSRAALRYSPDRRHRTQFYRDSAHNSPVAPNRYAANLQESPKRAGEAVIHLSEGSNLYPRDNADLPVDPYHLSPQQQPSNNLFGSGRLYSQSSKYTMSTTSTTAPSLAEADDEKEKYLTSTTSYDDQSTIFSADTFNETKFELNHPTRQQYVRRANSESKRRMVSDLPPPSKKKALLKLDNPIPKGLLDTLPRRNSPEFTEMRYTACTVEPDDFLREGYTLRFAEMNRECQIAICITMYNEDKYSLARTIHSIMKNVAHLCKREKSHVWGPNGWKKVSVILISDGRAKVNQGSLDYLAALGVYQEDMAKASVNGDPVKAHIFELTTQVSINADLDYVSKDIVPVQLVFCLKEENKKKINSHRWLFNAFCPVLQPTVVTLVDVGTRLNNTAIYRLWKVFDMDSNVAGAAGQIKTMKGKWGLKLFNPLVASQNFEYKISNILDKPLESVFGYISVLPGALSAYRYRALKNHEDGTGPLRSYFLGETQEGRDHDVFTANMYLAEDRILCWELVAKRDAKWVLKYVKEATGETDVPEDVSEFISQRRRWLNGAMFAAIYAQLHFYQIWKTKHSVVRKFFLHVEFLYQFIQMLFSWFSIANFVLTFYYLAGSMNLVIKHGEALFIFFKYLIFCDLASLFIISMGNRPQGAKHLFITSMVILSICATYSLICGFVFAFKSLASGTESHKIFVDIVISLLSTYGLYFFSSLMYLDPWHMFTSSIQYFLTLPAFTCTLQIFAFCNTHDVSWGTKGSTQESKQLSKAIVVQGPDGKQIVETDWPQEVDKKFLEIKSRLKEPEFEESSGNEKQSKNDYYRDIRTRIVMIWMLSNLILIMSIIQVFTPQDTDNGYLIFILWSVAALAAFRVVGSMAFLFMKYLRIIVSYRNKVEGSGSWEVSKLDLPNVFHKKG
# [5] = tested on: LDL; test: Anti-oxidation to LDL by TBARS method (Cu2+-mediated LDL oxidation); assay type: biochemical, human; details: read-out: IC50 (anti-oxidant activity to LDL)
# Description: The Phellinus sp. PL3 extract and the phellinsin A isolated from the same prepared as described in Examples were examined for their anti-oxidant activity to LDL as follows.
# In the present invention, dialdehydes as an oxidative product of unsaturated fatty acids was measured by performing TBARS (thiobarbituric acid-reactive substances) method to investigate the anti-oxidant activities of Phellinus sp. PL3 extract and the phellinsin A isolated from Phellinus sp PL3.
# 300 mL of human plasma was centrifuged at 100,000×g for 24 hours with an ultracentrifuge to remove a very low density lipoprotein (VLDL)/chylomicron layer floated on the supernatant. The remaining solution was adjusted to 1.063 g/mL of gravity and centrifuged at 100,000×g for 24 hours to separate again 25 mL (1.5-2.5 mg protein/mL) of LDL floated on the supernatant. […]
# Then, 10 μL of 0.25 mM CuSO4 was added to the resulting solution, reacted at 37° C. for 4 hours and added with 1 mL of 20% trichloroacetic acid (TCA) solution to stop the reaction. […] The resulting solution was centrifuged at 3,000 rpm for 5 min to separate supernatant and measured the absorbance at 540 nm with a UV-visible spectrophotometer. Finally, the amount of malondialdehyde (MDA) generated by the coloring reaction was determined.
# In the experiment using Phellinus sp. […] PL3, the amount of malondialdehyde was quantified by using this standard curve.
# [6] = Acute toxicity test of oral administration in mice; assay type: in vivo; details: both sexes, ICR, mouse, in vivo, po
# Description: (§1) In order to investigate the acute toxicity of Phellinus sp. PL3 extract or phellinsin A isolated from the same according to the present invention, the experimental procedure is performed as follows.
# (§2) 4-week old specific pathogens free (SPF) ICR mice were adopted in 12 of female and 12 of male mice (3 male and female mice/dose group, respectively) and raised in a breeding room under 12 L/12 D of light kept at temperature of 22±3° C. humidity of 55±10%. The experimental mice were adapted for a week before use. Animal fodder (purchased from Cheil Feed Co. Ltd., for mice and rat uses) and water were provided after sterilized and fed freely.
# (§3) The Phellinus sp. PL3 extract and phellinsin A isolated from the same prepared in Examples were made to 50 mg/mL of concentration by using 0.55% Tween 80 solvent and orally administered in 0.04 mL (100 mg/kg), 0.2 mL (500 mg/kg) and 0.4 mL (1,000 mg/kg) per 20 g of body weight. […]
# (§4) In addition, the experimental mice were killed, anatomized and examined on inner organs with the naked eyes in 7 days of administration. In a day interval from the 1st day, the body weights were measured to examine whether the Phellinus sp. […]
# [7] = tested on: ICR mice; test: Acute toxicity test of oral administration in mice; assay type: in vivo; details: oral 100, 500 and 1,000 mg/kg once, ICR mice, 7 days
# Description: as §1, §2, §3, §4
SMILES,IC50 [1],lag time (conjugated dienes) ([2]; 2 μM),"lag time (conjugated dienes) ([2]; 5 μM, monitored up to 240 min)",MDA nmol/mg LDL protein ([3]; 1 μM),MDA nmol/mg LDL protein ([3]; 2 μM),MDA nmol/mg LDL protein ([3]; 5 μM),MDA nmol/mg LDL protein ([3]; 10 μM),inhibition of chitin synthase 2 [4],Radical scavenging activity (%) ([1]; 5 min),Radical scavenging activity (%) ([1]; 10 min),Radical scavenging activity (%) ([1]; 30 min),IC50 [5],"anti-oxidant activity relative to probucol on macrophage-mediated LDL oxidation ([3]; 2-10 μM, times stronger than probucol)",LD50 at 7 days [6],"toxicity (clinical symptoms, deaths, body weight, blood tests, autopsy) [7]"
"Cc1c(C)c2c(c(C)c1O)CCC(C)(C(=O)O)O2 (stereo not shown) [trolox, reference compound]",18.6 µM,–,–,–,–,–,–,–,–,–,–,–,–,–,–
"CC(C)(Sc1cc(C(C)(C)C)c(O)c(C(C)(C)C)c1)Sc1cc(C(C)(C)C)c(O)c(C(C)(C)C)c1 [Probucol, probucol, reference compound]",–,63 min,70 min,209.7 ± 1.7 nmol/mg LDL protein,199.1 ± 10.7 nmol/mg LDL protein,157.4 ± 2.4 nmol/mg LDL protein,145.5 ± 3.9 nmol/mg LDL protein,–,–,–,–,–,–,–,–
"O=C1OC(c2ccc(O)c(O)c2)C(C(=O)O)/C1=C\c1ccc(O)c(O)c1 (stereo not shown) [Phellinsin A, phellinsin A]",1.7 µM,192 min,> 240 min,167.7 ± 6.2 nmol/mg LDL protein,94.2 ± 4.7 nmol/mg LDL protein,55.9 ± 2.8 nmol/mg LDL protein,39.4 ± 0.9 nmol/mg LDL protein,highly inhibit,55%,87%,92%,5.3 µM,2-3.7 times,≥ 1000 mg/kg,no toxicity
